From PMC11054274, “Dual Antitubercular and Antileishmanial Profiles of Quinoxaline Di-N-Oxides Containing an Amino Acidic Side Chain” (Pharmaceuticals, 2024)
Like-named read-outs stand apart in the source and are kept apart here.

Experiments:
[1] = test system: Mycobacterium tuberculosis H37Rv; experiment: In vitro activity against Mycobacterium tuberculosis H37Rv, microdilution AlamarBlue broth assay (BacTiter-Glo alternative read-out); type: cell-based; settings: for IC90: read-out: IC90, antibacterial activity against Mtb H37Rv
J774 murine macrophages = experiment: Cytotoxicity assay on macrophages (resazurin); type: cell-based; settings: for CC50: 24 h exposure, read-out: Toxicity against J774 macrophages CC50
Description: (§1) J774 murine macrophages were grown in RPMI-1640 medium (Sigma) supplemented with 10% heat-inactivated FBS (30 min at 56 °C) (SIGMA-Merck), penicillin G (100 U/mL) and streptomycin (100 µg/mL). For the experiments, cells in the pre-confluence phase were harvested with trypsin. Cell cultures were maintained at 37 °C in a humidified environment with 5% CO2.
(§2) Cell viability was evaluated using a modification with resazurin of the colorimetric method described previously. J774 macrophages were seeded (5 × 10^4 cells/well) in 96-well flat-bottom microplates with 100 µL of RPMI-1640 medium. The cells were allowed to adhere for 4 h at 37 °C in 5% CO2, then different concentrations of the test compounds in 100 µL of the medium were added and exposed for 24 h. Growth controls were also included. To evaluate cell viability, 20 µL of a 2.5 mM resazurin solution was added and the plates were returned to the incubator for another 3 h. The reduction in resazurin was determined by measuring the fluorescence intensity (excitation wavelength, 535 nm; emission wavelength, 590 nm). Each concentration was assayed three times. The medium and controls were used in each test as blanks. The cytotoxic effect of the compounds was defined as the 50% reduction in cell viability of treated culture cells with respect to the untreated culture (CC50).

[2] = test system: Leishmania donovani promastigotes; experiment: Promastigote susceptibility assay (resazurin), L. donovani; type: cell-based; settings: for IC50: Table S2, 48 h; for IC50 / activity against L. donovani (in words): promastigotes; for L. donovani promastigote selectivity index (SI): SI = CC50 (J774 macrophages)/IC50
Description: (§3) The following species of Leishmania were used: L. donovani (MHOM/IN/80/DD8), which was purchased (ATCC, Manassas, VA, USA), and L. amazonensis (MHOM/Br/79/Maria), which was kindly provided by Prof. Alfredo Toraño (Instituto de Salud Carlos III, Madrid, Spain). Promastigotes were cultured in Schneider’s Insect Medium supplemented with 10% heat-inactivated Fetal Bovine Serum (FBS) (SIGMA-Merck, Madrid, Spain) and 1000 U/L of penicillin plus 100 mg/L of streptomycin in 25 mL culture flasks at 26 °C.
(§4) The activity of the compounds on Leishmania promastigotes was performed according to the method previously reported by us. Briefly, promastigotes (2.5 × 10^5 parasites/well) were cultured in 96-well plastic plates. The compounds were dissolved in dimethylsulfoxide (DMSO). Serial dilutions at 1:2 of the test compounds in fresh culture medium were performed (100, 50, 25, 12.5, 6.25, 3.12, 1.56 and 0.78 µg/mL) in a final volume of 200 µL; the solutions were then added to the parasite suspension. After an incubation period of 48 h at 26 °C, a volume of 20 μL of 2.5 mM resazurin solution in PBS was added and the plates were incubated for 3 h under the same conditions. Finally, the Relative Fluorescence Unit (RFU) (535ex–590em nm wavelength) was determined in a fluorimeter (Infinite 200 Tecan i-Control). Growth inhibition (%) was calculated by 100—[(RFU treated wells—RFU signal-to-noise)/(RFU untreated—RFU signal-to-noise) × 100]. All tests were carried out in triplicate and the IC50 was calculated by probit analysis using SPSS 17.0 Statistics Software. Miltefosine (Sigma-Merck, Madrid, Spain) was used as the reference drug.

[3] = test system: Leishmania amazonensis amastigotes; experiment: Intracellular amastigote assay in J774 macrophages, L. amazonensis; type: cell-based; settings: for IC50: Table S3, intracellular amastigotes, 48 h, read-out: L. amazonensis IC50 (amastigote)
Description: We performed an intracellular amastigote assay on L. amazonensis and L. donovani according to a fluorometric method reported by us. To carry out the in vitro macrophage infections, 5 × 10^4 cells were cultured in RPMI-1640 medium and then were infected with 5 × 10^5 promastigotes. In the L. donovani assays, the plates were incubated for 48 h at 37 °C, while in the L. amazonensis assays, they were incubated at 33 °C for the first 24 h and then the temperature was increased to 37 °C for the next 24 h. After, the culture medium was removed and the cells were washed with buffered RPMI-HEPES at pH 7.4 several times in order to eliminate the non-internalized promastigotes. A total of 100 µL of fresh medium tempered at 37 °C was added to the infected cells, which then were exposed to 100 µL of the test compounds in RPMI-1640 at different concentrations (100, 50, 25, 12.5, 6.25, 3.12, 1.56 and 0.78 µg/mL in a final volume of 200 µL) for 48 h at 37 °C. The culture medium was removed by centrifugation at 3500 rpm for 5 min (Centrifuge 5403 Eppendorf) and a lysis solution (0.02% sodium dodecyl sulfate in RPMI-HEPES) was added. After 20 min, the treated cells were harvested (centrifugation at 3500 rpm for 5 min at 4 °C) and the supernatants were replaced by 200 μL of fresh Schneider’s culture medium. The plates were then incubated at 26 °C for another 3 days to allow for the transformation of viable amastigotes into promastigotes and proliferation. Afterwards, 20 μL/well of 2.5 mM resazurin was added and incubated for another 3 h. Finally, URF was measured and IC50 was estimated as described above. All tests were carried out in triplicate. Miltefosine was used as the reference drug.

[4] = test system: Leishmania amazonensis promastigotes; experiment: Promastigote susceptibility assay (resazurin), L. amazonensis; type: cell-based; settings: for IC50: Table S2, 48 h, read-out: L. amazonensis IC50 (promastigote); for IC50 / activity against L. amazonensis (in words): promastigotes; for L. amazonensis promastigote selectivity index (SI): SI = CC50 (J774 macrophages)/IC50
Description: as §3, §4

[5] = Cytotoxicity assay on macrophages (resazurin); type: cell-based, murine; settings: mouse, J774 macrophages, Table S2; 24 h exposure; read-out: Toxicity against J774 macrophages CC50
Description: as §1, §2

[6] = Mycobacterium tuberculosis, Table S1, Mtb H37Rv, read-out: IC50, antibacterial activity against Mtb H37Rv
[7] = Mycobacterium tuberculosis, Table S1, Mtb H37Rv
[8] = Table S1, Mtb H37Rv, read-out: IC50, antibacterial activity against Mtb H37Rv
[9] = Mycobacterium tuberculosis, H37Rv strain, read-out: IC50 against Mycobacterium tuberculosis H37Rv

Row | Compound | IC50 [1, 6] [µM] | IC90 [1, 7] [µM] | IC50 [1, 8] [µM] | IC90 ([1]; Table S1, Mtb H37Rv) [µM] | CC50 (J774 murine macrophages; Table S2) [µM] | IC50 [2] [µM] | IC50 [4] [µM] | CC50 at 24 h [5] [µM] | IC50 ([2]; Leishmania donovani) [µM] | IC50 ([4]; Leishmania amazonensis) [µM] | L. amazonensis promastigote selectivity index (SI) [4] | further results
1 | NCC[C@H](O)C(=O)N[C@@H]1C[C@H](N)[C@@H](O[C@H]2O[C@H](CN)[C@@H](O)[C@H](O)[C@H]2O)[C@H](O)[C@H]1O[C@H]1O[C@H](CO)[C@@H](O)[C@H](N)[C@H]1O [Amikacin, reference compound] | 0.07 | 0.08 | – | – | – | – | – | – | – | – | – | –
2 | COC(=O)CNC(=O)c1c(-c2ccccc2)[n+]([O-])c2ccccc2[n+]1[O-] [Compound 4a, N-(1,4-Dioxide-3-phenylquinoxaline-2-carbonyl)glycine methyl ester] | – | – | 26.3 | 55.5 | 850 | 103 ± 9.8 | 171 ± 8.5 | – | – | – | – | CC50 (J774 murine macrophages; Table S3): 850 µM; IC50 [3]: 12.6 ± 0.3 µM
3 | COC(=O)CNC(=O)c1c(-c2ccc(OC)cc2)[n+]([O-])c2ccccc2[n+]1[O-] [Compound 4b] | – | – | 40.6 | 69.8 | 1570 | 261 ± 7.8 | 157 ± 7.8 | – | – | – | – | –
4 | COC(=O)CNC(=O)c1c(-c2ccc(C(F)(F)F)cc2)[n+]([O-])c2ccccc2[n+]1[O-] [Compound 4c] | – | – | 13.2 | 25.9 | 6960 | > 238 | > 238 | – | – | – | – | activity against L. donovani (in words) [2]: inactive; activity against L. amazonensis (in words) [4]: inactive
5 | COc1ccc2c(c1)[n+]([O-])c(-c1ccccc1)c(C(=O)NCC(=O)OCc1ccccc1)[n+]2[O-] [Compound 4f, N-(6-Methoxy-1,4-dioxide-3-(phenyl)quinoxaline-2-carbonyl)glycine benzyl ester] | – | – | 21.9 | 47.9 | – | > 261 | > 261 | – | – | – | – | activity against L. donovani (in words) [2]: inactive; activity against L. amazonensis (in words) [4]: inactive
6 | COC(=O)CNC(=O)c1c(-c2ccc(C)cc2)[n+]([O-])c2cc(OC)ccc2[n+]1[O-] [Compound 4j, N-(6-Methoxy-1,4-dioxide-3-(4-methylphenyl)quinoxaline-2-carbonyl)glycine methyl ester] | 12.9 | 24.6 | – | – | – | – | – | 318.6 ± 0.84 | 13.8 ± 9.5 | 111 ± 4 | 2.9 | L. donovani promastigote selectivity index (SI) [2]: 23.2
7 | COC(=O)CNC(=O)c1c(-c2ccc(C(F)(F)F)cc2)[n+]([O-])c2cc(C)ccc2[n+]1[O-] [Compound 4l, N-(6-Methyl-1,4-dioxide-3-(4-trifluoromethylphenyl)quinoxaline-2-carbonyl)glycine methyl ester] | – | – | 7.2 | 15.5 | 1380 | – | > 230 | – | – | – | – | activity against L. donovani (in words) [2]: inactive; activity against L. amazonensis (in words) [4]: inactive
8 | COC(=O)CNC(=O)c1c(-c2ccccc2)[n+]([O-])c2cc(C(F)(F)F)ccc2[n+]1[O-] [Compound 4n, N-(1,4-Dioxide-6-trifluoromethyl-3-phenylquinoxaline-2-carbonyl)glycine methyl ester] | – | – | 11.9 | 27.9 | 191 ± 29.3 | 43.5 ± 1.1 | 97.3 ± 4.3 | – | – | – | – | –
9 | O=C(O)CNC(=O)c1c(-c2ccc(F)cc2)[n+]([O-])c2ccccc2[n+]1[O-] [Compound 5d, 2-((Carboxymethyl)carbamoyl)-3-(4-fluorophenyl)quinoxaline 1,4-dioxide] | – | – | – | – | – | – | – | 840 | > 280 | > 280 | > 3.0 | –
10 | COc1ccc2c(c1)[n+]([O-])c(-c1ccccc1)c(C(=O)NCC(=O)O)[n+]2[O-] [Compound 5f, 2-((Carboxymethyl)carbamoyl)-6-methoxy-3-phenylquinoxaline 1,4-dioxide] | 4.28 | 9.86 | – | – | – | – | – | 8130 | > 271 | > 271 | > 30 | –
11 | COc1ccc2c(c1)[n+]([O-])c(-c1ccc(C(F)(F)F)cc1)c(C(=O)NCC(=O)O)[n+]2[O-] [Compound 5h, 2-((Carboxymethyl)carbamoyl)-6-methoxy-3-(4-(trifluoromethyl)phenyl)quinoxaline 1,4-dioxide] | 16.4 | 22 | – | – | – | – | – | 1830 | > 229 | > 229 | > 8 | –
12 | Cc1ccc2c(c1)[n+]([O-])c(-c1ccc(F)cc1)c(C(=O)NCC(=O)O)[n+]2[O-] [Compound 5m, 2-((Carboxymethyl)carbamoyl)-3-(4-fluorophenyl)-6-methylquinoxaline 1,4-dioxide] | 17.2 | 35.1 | – | – | – | – | – | 8090 | > 270 | > 270 | > 30 | –
13 | COc1ccc2c(c1)[n+]([O-])c(-c1ccc(C)cc1)c(C(=O)O)[n+]2[O-] [Compound 6, 2-Carboxy-6-methoxy-3-(4-tolyl)quinoxaline 1,4-dioxide] | 45 | 76.4 | – | – | – | – | – | 424 | 6.2 ± 0.2 | 20.5 ± 2.5 | 20.7 | L. donovani promastigote selectivity index (SI) [2]: 68.4; IC50 ([3]; Leishmania amazonensis, J774): 31.9 ± 13.2 µM; L. amazonensis amastigote selectivity index (SI) ([3]; SI = CC50 (J774 macrophages)/IC50): 13.3
14 | N[C@@H]1CON=C1O [Cycloserine, reference compound] | – | 13.5 | – | – | – | – | – | – | – | – | – | IC50 [1, 9]: 12.5 µM
15 | CC[C@@H](CO)NCCN[C@@H](CC)CO [Ethambutol, reference compound] | 1.56 | 32.8 | – | – | – | – | – | – | – | – | – | –
16 | NNC(=O)c1ccncc1 [Isoniazid, reference compound] | 0.18 | 0.29 | – | – | – | – | – | – | – | – | – | –
17 | CCc1nc(N)nc(N)c1-c1ccc(Cl)cc1 [Pyrimethamine, reference compound] | – | 75 | – | – | – | – | – | – | – | – | – | IC50 [1, 9]: 37.4 µM
18 | N-(1,4-Dioxide-3-((4,5-dimethoxy-2-nitro-phenyl)quinoxaline-2-carbonyl)glycine benzyl ester [Compound 4e] | – | – | 25.2 | 47.9 | 18.5 ± 3.4 | 34 ± 5.2 | 25.1 ± 0.56 | – | – | – | – | toxicity to macrophages (in words) (J774 murine macrophages): highly toxic to macrophages
